Laboratory results published in ChEMBL document CHEMBL1159340, “Antibacterial diterpenes from Calceolaria pinifolia” (J Nat Prod, 2003).
In brackets after ≈: the same amount, converted by molar mass.

Columns and labels:
[1] = system: Bacillus subtilis; test: Inhibition of DNA synthesis in Bacillus subtilis assessed as incorporation of [3H]thymidine at 0.25 ug/mL by LKB Betaplate scintillation counter relative to control; assay type: functional; set-up: scale not given: the % may be the effect or the level left
[2] = system: Bacillus subtilis; test: Inhibition of protein synthesis in Bacillus subtilis assessed as incorporation of [3H]amino acid at 0.25 ug/mL by LKB Betaplate scintillation counter relative to control; assay type: functional; set-up: scale not given: the % may be the effect or the level left
[3] = system: Bacillus subtilis; test: Inhibition of RNA synthesis in Bacillus subtilis assessed as incorporation of [3H]uridine at 0.25 ug/mL by LKB Betaplate scintillation counter relative to control; assay type: functional; set-up: scale not given: the % may be the effect or the level left
[4] = system: Bacillus subtilis; test: Inhibition of RNA synthesis in Bacillus subtilis assessed as [3H]uridine uptake at 0.25 ug/mL by LKB Betaplate scintillation counter relative to control; assay type: functional; set-up: scale not given: the % may be the effect or the level left
[5] = system: Bacillus subtilis; test: Inhibition of DNA synthesis in Bacillus subtilis assessed as [3H]thymidine uptake at 0.25 ug/mL by LKB Betaplate scintillation counter relative to control; assay type: functional; set-up: scale not given: the % may be the effect or the level left
[6] = system: Bacillus subtilis; test: Inhibition of protein synthesis in Bacillus subtilis assessed as [3H]amino acid uptake at 0.25 ug/mL by LKB Betaplate scintillation counter relative to control; assay type: functional; set-up: scale not given: the % may be the effect or the level left
[7] = system: Bacillus subtilis; test: Antimicrobial activity against Bacillus subtilis 327 after 18 hrs by microbroth dilution method; assay type: functional
[8] = system: Staphylococcus aureus; test: Antimicrobial activity against methicillin-susceptible Staphylococcus aureus 375 after 18 hrs by microbroth dilution method; assay type: functional
[9] = system: Escherichia coli; test: Antimicrobial activity against Escherichia coli imp 389 after 18 hrs by microbroth dilution method; assay type: functional
[10] = Toxicity in human RBC assessed as hemolysis at 16 ug/ml after 2 hrs; assay type: cell-based, Erythrocyte; settings: red blood cells (RBC), read-out: Activity
[11] = Toxicity in human RBC assessed as hemolysis at 8 ug/ml after 2 hrs; assay type: cell-based, Erythrocyte; settings: red blood cells (RBC), read-out: Activity
[12] = Toxicity in human RBC assessed as hemolysis at 0.5 ug/ml after 2 hrs; assay type: cell-based, Erythrocyte; settings: red blood cells (RBC), read-out: Activity
[13] = Toxicity in human RBC assessed as hemolysis at 2 ug/ml after 2 hrs; assay type: cell-based, Erythrocyte; settings: red blood cells (RBC), read-out: Activity
[14] = Toxicity in human RBC assessed as hemolysis at 4 ug/ml after 2 hrs; assay type: cell-based, Erythrocyte; settings: red blood cells (RBC), read-out: Activity
[15] = Toxicity in human RBC assessed as hemolysis at 1 ug/ml after 2 hrs; assay type: cell-based, Erythrocyte; settings: red blood cells (RBC), read-out: Activity

`O=C(O)c1cn(C2CC2)c2cc(N3CCNCC3)c(F)cc2c1=O` [CIPROFLOXACIN] gave an Activity [1] of 61%, an Activity [2] of 94% and an Activity [3] of 94%. The Activity [4] was 100%, the Activity [5] was 73% and the Activity [6] was 104%.

With `CC1(C)CC[C@]2(C(=O)O)CC[C@]3(C)C(=CC[C@@H]4[C@@]5(C)CC[C@@H](O)C(C)(C)[C@@H]5CC[C@]43C)[C@@H]2C1` the MIC [7] was 64 µg/mL (≈ 140 µM), the MIC [8] was > 128 µg/mL and the MIC [9] was > 128 µg/mL.

Work on `C[C@@H]1[C@H](O)[C@@H](C)/C=C/C=C/C=C/C=C/C=C/C=C/C=C/[C@H](O[C@@H]2O[C@H](C)[C@@H](O)[C@H](N)[C@@H]2O)C[C@@H]2O[C@](O)(C[C@@H](O)C[C@@H](O)[C@H](O)CC[C@@H](O)C[C@@H](O)CC(=O)O[C@H]1C)C[C@H](O)[C@H]2C(=O)O` [AMPHOTERICIN B] yielded a hemolysis at 2 h, 16 ug/ml [10] of 118%, a hemolysis at 2 h, 8 ug/ml [11] of 96.9% and a hemolysis at 2 h, 0.5 ug/ml [12] of 0%. For the same molecule, the hemolysis at 2 h, 2 ug/ml [13] was 27.5%, the hemolysis at 2 h, 4 ug/ml [14] was 74.6% and the hemolysis at 2 h, 1 ug/ml [15] was 9.7%.
